Assay results as given in PMC6435658, “Investigation into the Molecular Mechanisms underlying the Anti-proliferative and Anti-tumorigenesis activities of Diosmetin against HCT-116 Human Colorectal Cancer” (Scientific Reports, 2019).

System: HCT-116 cells
Assay: NanoString nCounter gene expression profiling
Type: cell-based, human
Experimental: Gene expressions of the cancer canonical pathways were measured by NanoString nCounter. HCT-116 cells were treated with Dis for 48 h and total RNA were extracted by using RNeasy Mini Kit (QiAgen, Hilden, Germany) according to the manufacture’s protocol. Concentrations of RNA were checked through NanoDrop 2000C (Thermo Scientific™, Pittsburgh, PA, USA). Pancancer pathways panel on Nanostring nCounter system (Nanostring Technologies, Inc., Seattle, WA, USA) were used to investigate the gene expression profile of cancer pathways. A total of 770 genes were investigated and compared between Dis treated and untreated cells. The list of investigated genes is provided as supplementary data (Table S1). RNA was hybridized, purified and immobilized before being aligned on the nCounter cartridge and introduced to nCounter.
Digital Analyzer was utilized for data collection according to the manufacturer’s instruction. Briefly, RNA samples were added to the master mix contain hybridization buffer and reporter CodeSet. Capture ProbeSet was added to this mixture and introduced to pre-heated 65 °C thermal cycler for 16 h incubation. After removing the unbound probe, target/probe were immobilized and aligned on the nCounter Cartridge. nCounter digital analyzer was used to collect the nCounter cartridge data and data were analyzed using nSolver 3.0 analysis software. Significant genes were choose based on the false discovery rate (FDR) <0.05 and log2 fold change ≥ ± 0.5 supplementary data (Figure S1).

Structure (SMILES): COc1ccc(-c2cc(=O)c3c(O)cc(O)cc3o2)cc1O [Dis, Diosmetin]
- gene expression of NF-ƙB inhibitor (iƙb-α) (HCT-116, Dis treated): elevates
- Log2 fold change, Fubp1 (gene Fubp1, HCT-116, Dis 48 h vs untreated): −0.5
- Log2 fold change, Prkar2b (gene Prkar2b, HCT-116, Dis 48 h vs untreated): −1.6
- Log2 fold change, bax (gene bax, HCT-116, Dis 48 h vs untreated): 0.5
- Log2 fold change, bmp8a (gene bmp8a, HCT-116, Dis 48 h vs untreated): −2.2
- Log2 fold change, ccna2 (cyclin A) (gene ccna2 (cyclin A), HCT-116, Dis 48 h vs untreated): −0.6
- Log2 fold change, ccnb1 (cyclin B) (gene ccnb1 (cyclin B), HCT-116, Dis 48 h vs untreated): −0.5
- Log2 fold change, cdc7 (gene cdc7, HCT-116, Dis 48 h vs untreated): −0.8
- Log2 fold change, cdc25 (gene cdc25, HCT-116, Dis 48 h vs untreated): −0.6
- Log2 fold change, cdkn1a (p21) (gene cdkn1a (p21), HCT-116, Dis 48 h vs untreated): 1.5
- Log2 fold change, fas (gene fas, HCT-116, Dis 48 h vs untreated): 0.8
- Log2 fold change, gadd45 (gene gadd45, HCT-116, Dis 48 h vs untreated): 0.8
- Log2 fold change, h2afx (gene h2afx, HCT-116, Dis 48 h vs untreated): −0.9
- Log2 fold change, h3f3a (h2a) (gene h3f3a (h2a), HCT-116, Dis 48 h vs untreated): −0.9
- Log2 fold change, hdac1 (gene hdac1, HCT-116, Dis 48 h vs untreated): −0.5
- Log2 fold change, hdac2 (gene hdac2, HCT-116, Dis 48 h vs untreated): −0.6
- Log2 fold change, hdac5 (gene hdac5, HCT-116, Dis 48 h vs untreated): −2.6
- Log2 fold change, hells (gene hells, HCT-116, Dis 48 h vs untreated): −0.6
- Log2 fold change, hist1h3b (gene hist1h3b, HCT-116, Dis 48 h vs untreated): −1.2
- Log2 fold change, hist1h3h (gene hist1h3h, HCT-116, Dis 48 h vs untreated): −1.5
- Log2 fold change, hspb1 (hsp27) (gene hspb1 (hsp27), HCT-116, Dis 48 h vs untreated): −2.2
- Log2 fold change, id1 (gene id1, HCT-116, Dis 48 h vs untreated): −0.5
- Log2 fold change, id2 (gene id2, HCT-116, Dis 48 h vs untreated): −2.0
- Log2 fold change, mad2l2 (gene mad2l2, HCT-116, Dis 48 h vs untreated): −0.6
- Log2 fold change, mcm2 (gene mcm2, HCT-116, Dis 48 h vs untreated): −0.6
- Log2 fold change, mcm4 (gene mcm4, HCT-116, Dis 48 h vs untreated): −0.6
- Log2 fold change, mcm7 (gene mcm7, HCT-116, Dis 48 h vs untreated): −0.6
- Log2 fold change, msh2 (gene msh2, HCT-116, Dis 48 h vs untreated): −0.7
- Log2 fold change, nbn (gene nbn, HCT-116, Dis 48 h vs untreated): −0.5
- Log2 fold change, pcna (gene pcna, HCT-116, Dis 48 h vs untreated): −0.6
- Log2 fold change, pole2 (gene pole2, HCT-116, Dis 48 h vs untreated): −1.4
- Log2 fold change, pttg2 (gene pttg2, HCT-116, Dis 48 h vs untreated): −0.9
- Log2 fold change, rad21 (gene rad21, HCT-116, Dis 48 h vs untreated): −0.8
- Log2 fold change, rbx1 (gene rbx1, HCT-116, Dis 48 h vs untreated): −1.2
- Log2 fold change, setd2 (gene setd2, HCT-116, Dis 48 h vs untreated): 0.7
- Log2 fold change, sfn (stratifin) (gene sfn (stratifin), HCT-116, Dis 48 h vs untreated): 0.6
- Log2 fold change, sin3 (gene sin3, HCT-116, Dis 48 h vs untreated): −0.5
- Log2 fold change, smad9 (gene smad9, HCT-116, Dis 48 h vs untreated): −2.7
- Log2 fold change, smc3 (gene smc3, HCT-116, Dis 48 h vs untreated): −0.7
- Log2 fold change, stmn1 (gene stmn1, HCT-116, Dis 48 h vs untreated): −1.5
- Log2 fold change, tnfrsf10b (gene tnfrsf10b, HCT-116, Dis 48 h vs untreated): 0.8
- Log2 fold change, ttk (gene ttk, HCT-116, Dis 48 h vs untreated): −1.0
- Log2 fold change, ubb (gene ubb, HCT-116, Dis 48 h vs untreated): −0.9
